Measured values published in ChEMBL document CHEMBL1128211, “3D-quantitative structure-activity relationships of human immunodeficiency virus type-1 proteinase inhibitors: comparative molecular field analysis of 2-heterosubstituted statine derivatives-implications for the design of novel inhibitors” (J Med Chem, 1995).

target: Human immunodeficiency virus type 1 protease (Human immunodeficiency virus 1, UniProt Q72874); test: Inhibitory activity was determined against HIV type 1 protease

| Compound | Ki [nM] |
| --- | --- |
| COc1ccc(CN[C@@H](C(=O)N[C@H]2c3ccccc3CC2O)[C@H](O)[C@H](Cc2ccccc2)NC(=O)OC(C)(C)C)cc1 (stereo partly specified) | 148 |
| CC(C)(C)[C@H](NC(=O)OCc1ccccc1)C(=O)N[C@@H](Cc1ccccc1)[C@@H](O)[C@@H](NCc1ccc(OCCN2CCOCC2)cc1)C(=O)N[C@H]1c2ccccc2CC1O (stereo partly specified) | 9.55 |
| CC(C)[C@H](N)C(=O)C[C@@H](Cc1ccccc1)[C@@H](O)[C@H]1CCc2ccc(cc2)OCCOCCOCCCOCCNC(=O)[C@H](C(C)C)CC1=O | 7.59 |
| CC(C)(C)[C@H](NC(=O)OCc1ccccc1)C(=O)N[C@@H](Cc1ccccc1)[C@@H](O)[C@@H](NCc1ccc(OCCN2CCOCC2)cc1)C(=O)N[C@H](CO)c1ccccc1 (stereo in doubt; 283267) | 129 |
| CC(C)(C)[C@H](NC(=O)OCc1ccccc1)C(=O)N[C@@H](Cc1ccccc1)[C@@H](O)[C@@H](NCc1ccccc1)C(=O)NC(CO)c1ccccc1 (stereo partly specified) | 107 |
| CC(C)(C)OC(=O)N[C@@H](Cc1ccccc1)[C@@H](O)[C@@H](NCc1ccc(OCCO)cc1)C(=O)N[C@H]1c2ccccc2CC1O (stereo partly specified) | 79.4 |
| CCOC(=O)[C@H](NCc1ccc(Cl)cc1)[C@H](O)[C@H](Cc1ccc(OC)cc1)NC(=O)OC(C)(C)C | 3720 |
| CC(C)(C)OC(=O)N[C@@H](Cc1ccccc1)[C@@H](O)[C@@H](NCc1ccc(OCCN2CCOCC2)cc1)C(=O)N[C@H]1c2ccccc2CC1O (stereo partly specified) | 162 |
| CC(C)[C@H](NC(=O)[C@H](NCc1ccccc1)[C@H](O)[C@H](Cc1ccccc1)NC(=O)[C@@H](NC(=O)CC1NC(=O)NC1=O)C(C)(C)C)C(=O)NCc1ccccc1 (stereo partly specified) | 11 |
| CC(C)[C@H](NC(=O)[C@H](NCc1ccc(Cl)cc1)[C@H](O)[C@H](Cc1ccccc1)NC(=O)OC(C)(C)C)C(=O)NCc1nc2ccccc2[nH]1 | 11 |
| CC(C)(C)OC(=O)N[C@@H](Cc1ccccc1)[C@@H](O)[C@@H](NCc1ccc(CNC(=O)CCc2nc3ccccc3[nH]2)cc1)C(=O)NC(CO)c1ccccc1 (stereo partly specified) | 2510 |
| CC(C)(C)[C@H](NC(=O)OCc1ccccc1)C(=O)N[C@@H](Cc1ccccc1)[C@@H](O)[C@@H](NCc1ccc(OCCN2CCOCC2)cc1)C(=O)NCc1ccccc1 | 69.2 |
| COc1ccc(CN[C@@H](C(=O)N[C@H](C(=O)NCc2nc3cc[nH]cc-3n2)C(C)C)[C@H](O)[C@H](Cc2ccccc2)NC(=O)OC(C)(C)C)cc1 | 15.1 |

Second part, the compound after the results:

| Ki [nM] | Compound |
| --- | --- |
| 24 | CC(C)[C@H](NC(=O)[C@H](NCc1ccccc1)[C@H](O)[C@H](Cc1ccccc1)NC(=O)[C@H](CC(N)=O)NC(=O)c1ccc2ccccc2n1)C(=O)NCc1ccccc1 |
| 15.1 | COc1ccc(CN[C@@H](C(=O)N[C@H](C(=O)NCn2nnc3ccccc32)C(C)C)[C@H](O)[C@H](Cc2ccccc2)NC(=O)[C@@H](NC(=O)OCc2ccccc2)C(C)C)cc1 |
| 10 | COc1ccc(CN[C@@H](C(=O)N[C@H](C(=O)Nc2nc3ccccc3[nH]2)C(C)C)[C@H](O)[C@H](Cc2ccccc2)NC(=O)[C@@H](NC(=O)OCc2ccccc2)C(C)C)cc1 |
| 12.9 | CC(C)[C@H](NC(=O)[C@H](NCc1ccccc1)[C@H](O)[C@H](Cc1ccccc1)NC(=O)[C@@H](NC(=O)CCc1ccc(O)cc1)C(C)(C)C)C(=O)NCc1ccccc1 |
| 33.1 | CC(C)[C@H](NC(=O)OCCCCCN)C(=O)N[C@@H](Cc1ccccc1)[C@@H](O)[C@@H](NCc1ccccc1)C(=O)N[C@H](C(=O)NCc1ccccc1)C(C)C |
| 2690 | CCOC(=O)[C@H](NCc1ccc(CN)cc1)[C@H](O)[C@H](Cc1ccccc1)NC(=O)[C@@H](NC(=O)OCc1ccccc1)C(C)C |
| 447 | COc1ccc(CN[C@@H](C(=O)N[C@H](C(=O)NCc2nc3ccccc3[nH]2)C(C)C)[C@H](O)[C@H](Cc2ccccc2)NC(=O)[C@H](NC(=O)OCc2nc3cc[nH]cc-3n2)C(C)(C)C)cc1 |
| 13.5 | CC(C)[C@H](NC(=O)OCc1ccccc1)C(=O)N[C@@H](Cc1ccccc1)[C@@H](O)[C@@H](NCc1ccccc1)C(=O)N[C@H](C(=O)NCc1cccnc1)C(C)C |
| 100 | CC(C)(C)[C@H](NC(=O)OCc1ccccc1)C(=O)N[C@@H](Cc1ccccc1)[C@@H](O)[C@@H](NCc1ccc(OCCN2CCOCC2)cc1)C(=O)N[C@H](CO)c1ccccc1 (stereo in doubt; 283268) |
| 7.76 | COc1ccc(CN[C@@H](C(=O)N[C@H](C(=O)NCc2nc3ccccc3[nH]2)C(C)C)[C@H](O)[C@H](Cc2ccccc2)NC(=O)[C@@H](NC(=O)CCc2ccc(P(=O)(O)O)cc2)C(C)(C)C)cc1 |
| 15.1 | CC(C)[C@H](NC(=O)[C@H](NCc1ccccc1)[C@H](O)[C@H](Cc1ccccc1)NC(=O)[C@@H](NC(=O)[C@@H](O)Cc1ccccc1)C(C)(C)C)C(=O)NCc1ccccc1 |
| 9.55 | COc1ccc(CN[C@@H](C(=O)N[C@H](C(=O)NCCNc2ccc([N+](=O)[O-])cn2)C(C)C)[C@H](O)[C@H](Cc2ccccc2)NC(=O)[C@@H](NC(=O)OCc2ccccc2)C(C)C)cc1 |
| 18.2 | COc1ccc(CN[C@@H](C(=O)N[C@H](C(=O)NCCc2ccc(O)cc2)C(C)C)[C@H](O)[C@H](Cc2ccccc2)NC(=O)[C@@H](NC(=O)OCc2ccccc2)C(C)C)cc1 |
